# In publication PMC5681660, “Reduced hepatitis B and D viral entry using clinically applied drugs as novel inhibitors of the bile acid transporter NTCP” (Scientific Reports, 2017):
# Where a name gives a salt, the structure may show the parent alone. Read-outs that look alike come from different tables or passages of the source.
# Key:
# [1] = target: T1, human NTCP (Homo sapiens, UniProt Q14973); assay: Screening taurocholate uptake assay (96-well, [14C]taurocholate, 10 µM drug)
# T1 sequence (Q14973 1-349): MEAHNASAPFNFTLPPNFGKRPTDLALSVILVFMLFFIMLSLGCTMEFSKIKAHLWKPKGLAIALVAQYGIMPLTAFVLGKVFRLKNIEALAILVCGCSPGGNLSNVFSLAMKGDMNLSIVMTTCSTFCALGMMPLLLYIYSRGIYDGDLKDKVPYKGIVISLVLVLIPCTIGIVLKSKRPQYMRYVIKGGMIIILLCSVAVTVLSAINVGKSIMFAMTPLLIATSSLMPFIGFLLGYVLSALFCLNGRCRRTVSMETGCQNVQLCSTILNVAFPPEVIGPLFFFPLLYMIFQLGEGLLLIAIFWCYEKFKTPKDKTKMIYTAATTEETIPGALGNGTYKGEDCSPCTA
# [2] = target: T1, human NTCP; assay: Screening fluorescent competitive Myrcludex B-FITC binding assay (96-well, 10 µM drug)
# [3] = Prestwick library screen, 10 µM drug, B-score of taurocholate uptake
# [4] = combined ranking from functional and binding assay B-scores
# [5] = Prestwick library screen, 10 µM drug, B-score of Myrcludex B-FITC binding
# [6] = combined ranking from functional and binding screening assays
# [7] = screen, 10 µM drug, taurocholate uptake
# [8] = screen, 10 µM drug, Myrcludex B-FITC binding
# [9] = Prestwick library screen, taurocholate uptake, 10 µM drug
# [10] = ranking score beside the functional and binding assay B-scores of the screen
# [11] = Prestwick library screen, Myrcludex B-FITC binding, 10 µM drug
smiles,measurement,setting,value
CN1CCN(CCCN2c3ccccc3Sc3ccc(S(=O)(=O)N(C)C)cc32)CC1.CS(=O)(=O)O.CS(=O)(=O)O [Thioproperazine dimesylate],B-score functional assay,[1]; [3],0.683
same,Ranking score,[1]; [4],1068.06
same,B-score binding assay,[2]; [5],1.771
O=C(O)CNC(=O)C(CS)Cc1ccccc1 (stereo not drawn) [Thiorphan],B-score functional assay,[1]; [3],0.09
same,Ranking score,[1]; [4],959.982
same,B-score binding assay,[2]; [5],2.652
N[C@@H](Cc1cc(I)c(Oc2cc(I)c(O)c(I)c2)c(I)c1)C(=O)O [Thyroxine (L)],Ranking score,[1]; [6],435.061
same,B-score functional assay,[1]; [7],0.005
same,B-score binding assay,[2]; [8],-0.765
c1ccc2[nH]c(-c3cscn3)nc2c1 [Tiabendazole],B-score functional assay,[1]; [3],0.849
same,Ranking score,[1]; [4],925.084
same,B-score binding assay,[2]; [5],0.306
CCN(CC)CCNC(=O)c1cc(S(C)(=O)=O)ccc1OC [Tiapride hydrochloride],B-score functional assay,[1]; [3],1.625
same,Ranking score,[1]; [4],1010.78
same,B-score binding assay,[2]; [5],0.4
CC(C(=O)O)c1ccc(C(=O)c2ccccc2)s1 (stereo not drawn) [Tiaprofenic acid],B-score functional assay,[1]; [3],0.836
same,Ranking score,[1]; [4],1082.46
same,B-score binding assay,[2]; [5],1.57
C#C[C@]1(O)CC[C@H]2[C@@H]3[C@H](C)CC4=C(CCC(=O)C4)[C@H]3CC[C@@]21C [Tibolone],B-score functional assay,[1]; [3],0.613
same,Ranking score,[1]; [4],930.923
same,B-score binding assay,[2]; [5],0.535
CC(C)(C)NC[C@H](O)COc1nsnc1N1CCOCC1.O=C(O)/C=C\C(=O)O [Timolol maleate salt],B-score functional assay,[1]; [3],1.166
same,Ranking score,[1]; [4],1052.08
same,B-score binding assay,[2]; [5],0.866
Clc1ccc2nsnc2c1NC1=NCCN1 [Tizanidine HCl],Ranking score,[1]; [6],334.885
same,B-score functional assay,[1]; [7],-0.107
same,B-score binding assay,[2]; [8],-1.169
Cc1cccc(C)c1NC(=O)C(C)N (stereo not drawn) [Tocainide hydrochloride],B-score functional assay,[1]; [3],1.054
same,Ranking score,[1]; [4],1036.23
same,B-score binding assay,[2]; [5],0.83
c1ccc(CC2=NCCN2)cc1 [Tolazoline hydrochloride],B-score functional assay,[1]; [3],4.096
same,Ranking score,[1]; [4],929.251
same,B-score binding assay,[2]; [5],0.03
CCCCNC(=O)NS(=O)(=O)c1ccc(C)cc1 [Tolbutamide],Ranking score,[1]; [6],448.765
same,B-score functional assay,[1]; [7],0.082
same,B-score binding assay,[2]; [8],-0.855
Cc1ccc(C(=O)c2cc(O)c(O)c([N+](=O)[O-])c2)cc1 [Tolcapone],Ranking score,[1]; [6],424.338
same,B-score functional assay,[1]; [7],-1.594
same,B-score binding assay,[2]; [8],1.049
Cc1ccc(C(=O)c2ccc(CC(=O)O)n2C)cc1 [Tolmetin sodium salt dihydrate],B-score functional assay,[1]; [3],0.203
same,Ranking score,[1]; [4],996.915
same,B-score binding assay,[2]; [5],2.458
Cc1ccc(O)c([C@H](CCN(C(C)C)C(C)C)c2ccccc2)c1 [Tolterodine tartrate],B-score functional assay,[1]; [9],0.018
same,Ranking score,[1]; [10],673.446
same,B-score binding assay,[2]; [11],0.032
CC1(C)O[C@@H]2[C@@H](CO[C@@]3(COS(N)(=O)=O)OC(C)(C)O[C@@H]23)O1 [Topiramate],B-score functional assay,[1]; [9],1.004
same,Ranking score,[1]; [10],700.689
same,B-score binding assay,[2]; [11],-0.268
CC[C@@]1(O)C(=O)OCc2c1cc1n(c2=O)Cc2cc3c(CN(C)C)c(O)ccc3nc2-1 [Topotecan],B-score functional assay,[1]; [9],0.858
same,Ranking score,[1]; [10],819.148
same,B-score binding assay,[2]; [11],0.007
Cl.NC1CCN(c2nc3c(cc2F)c(=O)c(C(=O)O)cn3-c2ccc(F)cc2F)C1 (stereo not drawn) [Tosufloxacin hydrochloride],B-score functional assay,[1]; [9],0.009
same,Ranking score,[1]; [10],746.768
same,B-score binding assay,[2]; [11],0.338
COc1cccc(C2(O)CCCCC2CN(C)C)c1.Cl (stereo not drawn) [Tramadol hydrochloride],Ranking score,[1]; [6],410.66
same,B-score functional assay,[1]; [7],0.906
same,B-score binding assay,[2]; [8],-1.463
N[C@@H]1C[C@H]1c1ccccc1 [Tranylcypromine hydrochloride],B-score functional assay,[1],0.857
same,Ranking score,[1],1041.86
same,B-score binding assay,[2],1.095
O=c1n(CCCN2CCN(c3cccc(Cl)c3)CC2)nc2ccccn12 [Trazodone hydrochloride],B-score functional assay,[1]; [9],0.169
same,Ranking score,[1]; [10],707.824
same,B-score binding assay,[2]; [11],-0.001
C(#CCN1CCCC1)CN1CCCC1.Cl.Cl [Tremorine dihydrochloride],Ranking score,[1]; [6],382.832
same,B-score functional assay,[1]; [7],-2.034
same,B-score binding assay,[2]; [8],1.525
C[C@]12C=CC(=O)C=C1CC[C@H]1[C@@H]3C[C@@H](O)[C@](O)(C(=O)CO)[C@@]3(C)C[C@H](O)[C@@]12F [Triamcinolone],B-score functional assay,[1]; [9],1.923
same,Ranking score,[1]; [10],735.139
same,B-score binding assay,[2]; [11],-0.283
